Data: patent US10266549B2, “ULK1 inhibitors and methods using same” (SALK INSTITUTE FOR BIOLOGICAL STUDIES, priority 2014, dated 2019)

target: ULK1 (Homo sapiens (Human), UniProt O75385); assay: ULK1 inhibition assay (Table 1); assay type: biochemical; conditions: * = tested as a mixture of regioisomers
Sequence (O75385 whole entry, species assumed): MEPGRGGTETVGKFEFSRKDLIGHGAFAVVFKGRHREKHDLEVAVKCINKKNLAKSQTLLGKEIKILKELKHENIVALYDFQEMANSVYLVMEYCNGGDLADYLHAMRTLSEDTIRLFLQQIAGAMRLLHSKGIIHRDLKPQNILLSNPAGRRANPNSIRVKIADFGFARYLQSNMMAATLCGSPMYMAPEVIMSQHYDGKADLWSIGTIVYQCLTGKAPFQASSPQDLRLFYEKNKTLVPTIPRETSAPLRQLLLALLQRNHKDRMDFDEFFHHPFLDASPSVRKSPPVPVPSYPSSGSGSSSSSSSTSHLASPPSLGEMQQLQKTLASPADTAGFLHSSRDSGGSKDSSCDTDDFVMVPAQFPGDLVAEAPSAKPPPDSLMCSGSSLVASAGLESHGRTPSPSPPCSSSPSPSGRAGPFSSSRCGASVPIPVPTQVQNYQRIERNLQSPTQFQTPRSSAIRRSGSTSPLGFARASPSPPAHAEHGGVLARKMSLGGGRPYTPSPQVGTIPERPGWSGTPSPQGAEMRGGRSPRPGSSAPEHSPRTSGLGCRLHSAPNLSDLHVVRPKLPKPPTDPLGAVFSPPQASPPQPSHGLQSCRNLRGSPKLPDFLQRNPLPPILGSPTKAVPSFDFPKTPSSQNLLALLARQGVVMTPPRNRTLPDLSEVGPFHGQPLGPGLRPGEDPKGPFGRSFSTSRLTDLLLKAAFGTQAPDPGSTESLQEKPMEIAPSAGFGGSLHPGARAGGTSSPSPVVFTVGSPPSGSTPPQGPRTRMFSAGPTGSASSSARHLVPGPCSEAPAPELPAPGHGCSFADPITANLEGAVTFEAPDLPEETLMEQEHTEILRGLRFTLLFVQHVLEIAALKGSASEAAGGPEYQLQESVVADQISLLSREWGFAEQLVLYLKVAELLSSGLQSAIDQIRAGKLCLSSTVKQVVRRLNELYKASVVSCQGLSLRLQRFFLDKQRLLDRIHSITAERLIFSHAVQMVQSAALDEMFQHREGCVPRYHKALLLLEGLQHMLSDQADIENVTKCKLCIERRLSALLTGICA

Compound	IC50 [nM]
COc1ccc(Nc2nc(Nc3cc(OC)c(OC)c(OC)c3)ncc2C(F)(F)F)cn1 [compound 37, N^4-(6-Methoxypyridin-3-yl)-5-(trifluoromethyl)-N^2-(3,4,5-trimethoxyphenyl)pyrimidine-2,4-diamine]	< 200
CNC(=O)c1ccccc1Oc1nc(Nc2ccc(C)c(C)c2)ncc1C(F)(F)F [compound 106, 2-((2-((3,4-dimethylphenyl)amino)-5-(trifluoromethyl)pyrimidin-4-yl)oxy)-N-methylbenzamide]	200 to 2000
Brc1cnc(Nc2ccc3[nH]ccc3c2)nc1Nc1ccccn1 [compound 154, 5-bromo-N^2-(1H-indol-5-yl)-N^4-(pyridin-2-yl)pyrimidine-2,4-diamine]	< 200
COc1cc(N2CCOCC2)ccc1Nc1nc(Nc2ccc3c(c2)CCC(=O)N3)ncc1C(F)(F)F [123a, 6-((4-((2-methoxy-4-morpholinophenyl)amino)-5-(trifluoromethyl)pyrimidin-2-yl)amino)-3,4-dihydroquinolin-2(1H)-one]	< 200
O=C1CCc2cc(Nc3ncc(C(F)(F)F)c(-c4ccccc4)n3)ccc2N1 [compound 72, 6-(4-Phenyl-5-(trifluoromethyl)pyrimidin-2-ylamino)-3,4-dihydroquinolin-2(1H)-one]	> 2000
O=C1CCc2cc(Nc3ncc(Br)c(NC4CC4)n3)ccc2N1 [compound 159, 6-((5-bromo-4-(cyclopropylamino)pyrimidin-2-yl)amino)-3,4-dihydroquinolin-2(1H)-one]	< 200
O=C1CCc2cc(Nc3ncc(C(F)(F)F)c(NC4CCC4)n3)ccc2N1 [150a, 6-((4-(cyclobutylamino)-5-(trifluoromethyl)pyrimidin-2-yl)amino)-3,4-dihydroquinolin-2(1H)-one]	< 200
O=C1CCc2cc(Nc3ncc(C(F)(F)F)c(Nc4ccc5c(c4)OC(F)(F)O5)n3)ccc2N1 [178a, 6-((4-((2,2-difluorobenzo[d][1,3]dioxol-5-yl)amino)-5-(trifluoromethyl)pyrimidin-2-yl)amino)-3,4-dihydroquinolin-2(1H)-one]	< 200
N#CCc1cccc(Nc2nc(Nc3ccc4c(c3)CCC(=O)N4)ncc2C(F)(F)F)c1 [compound 61, 2-(3-(2-(2-Oxo-1,2,3,4-tetrahydroquinolin-6-ylamino)-5-(trifluoromethyl)pyrimidin-4-ylamino)phenyl)acetonitrile]	< 200
COc1cccc(Nc2nc(Nc3ccc4c(c3)CCC(=O)N4)ncc2Cl)c1 [143a, 6-((5-chloro-4-((3-methoxyphenyl)amino)pyrimidin-2-yl)amino)-3,4-dihydroquinolin-2(1H)-one]	< 200
CNC(=O)c1ccccc1Nc1ccnc(Nc2cc(OC)c(OC)c(OC)c2)n1 [compound 60, N-Methyl-2-(2-(3,4,5-trimethoxyphenylamino)pyrimidin-4-ylamino)benzamide]	< 200
FC(F)(F)c1cnc(Nc2cnc3[nH]ccc3c2)nc1Nc1ccc2c(c1)OCO2 [compound 177, N4-(benzo[d][1,3]dioxol-5-yl)-N2-(1H-pyrrolo[2,3-b]pyridin-5-yl)-5-(trifluoromethyl)pyrimidine-2,4-diamine]	< 200
O=C1CCc2cc(Nc3ncc(C(F)(F)F)c(NCc4ccccc4)n3)ccc2N1 [compound 43, 6-(4-(Benzylamino)-5-(trifluoromethyl)pyrimidin-2-ylamino)-3,4-dihydroquinolin-2(1H)-one]	< 200
CNC(=O)c1ccccc1Nc1nc(Nc2cccc(OC)c2)ncc1Cl [compound 44, 2-(5-Chloro-2-(3-methoxyphenylamino)pyrimidin-4-ylamino)-N-methylbenzamide]	< 200
CNC(=O)c1ccccc1Nc1nc(Nc2ccc3c(c2)CC(=O)N3)ncc1Cl [compound 21, 2-(5-Chloro-2-(2-oxoindolin-5-ylamino)pyrimidin-4-ylamino)-N-methylbenzamide]	< 200
Cc1cnc(Nc2ccc3c(c2)CCC(=O)N3)nc1NCc1cccc(S(C)(=O)=O)c1 [compound 67, 6-((5-Methyl-4-((3-(methylsulfonyl)benzyl)amino)pyrimidin-2-yl)amino)-3,4-dihydroquinolin-2(1H)-one]	> 2000
COc1ccc(OC)c(Nc2ncc(C(F)(F)F)c(O)n2)c1 [109b, 2-((2,5-dimethoxyphenyl)amino)-5-(trifluoromethyl)pyrimidin-4-ol]	> 2000
CNC(=O)c1ccccc1Sc1nc(Nc2cc(OC)ccc2C)ncc1C(F)(F)F [compound 117, 2-((2-((5-methoxy-2-methylphenyl)amino)-5-(trifluoromethyl)pyrimidin-4-yl)thio)-N-methylbenzamide]	> 2000
FC(F)(F)c1cnc(Nc2ccc3c(c2)OCO3)nc1NC1Cc2ccccc2C1 [163b, N^2-(benzo [d] [1,3]dioxol-5-yl)-N^4-(2,3-dihydro-1H-inden-2-yl)-5-(trifluoromethyl)pyrimidine-2,4-diamine]	> 2000
O=C1CCc2cc(Nc3ncc(C(F)(F)F)c(/C=C/c4ccccc4)n3)ccc2N1 [compound 69, (E)-6-(4-Styryl-5-(trifluoromethyl)pyrimidin-2-ylamino)-3,4-dihydroquinolin-2(1H)-one]	< 200
O=C1CCc2cc(Nc3ncc(C(F)(F)F)c(Nc4ccccc4N4CCOCC4)n3)ccc2N1 [118a, 6-((4-((2-morpholinophenyl)amino)-5-(trifluoromethyl)pyrimidin-2-yl)amino)-3,4-dihydroquinolin-2(1H)-one]	< 200

Compound	IC50 [nM]
COc1ccc(C)c(Nc2ncc(Br)c(Nc3ccccn3)n2)c1 [compound 26, 5-Bromo-N^2-(5-methoxy-2-methylphenyl)-N^4-(pyridin-2-yl) pyrimidine-2,4-diamine]	200 to 2000
COCCNc1nc(Nc2cnc3[nH]ccc3c2)ncc1C(F)(F)F [compound 179, N4-(2-methoxyethyl)-N2-(1H-pyrrolo[2,3-b]pyridin-5-yl)-5-(trifluoromethyl)pyrimidine-2,4-diamine]	200 to 2000
CS(=O)(=O)c1cccc(CNc2nc(Nc3ccc4[nH]ccc4c3)ncc2Br)c1 [compound 153, 5-bromo-N^2-(1H-indol-5-yl)-N^4-(3-(methylsulfonyl)benzyl) pyrimidine-2,4-diamine]	> 2000
CNC(=O)c1ccccc1Nc1nc(Nc2cc(OC)c(OC)c(OC)c2)ncc1-c1ccccc1 [compound 73, N-Methyl-2-(5-phenyl-2-(3,4,5-trimethoxyphenylamino)pyrimidin-4-ylamino)benzamide]	< 200
O=C1CCc2cc(Nc3nc(Nc4ccccc4N4CCOCC4)ncc3C(F)(F)F)ccc2N1 [118b, 6-((2-((2-morpholinophenyl)amino)-5-(trifluoromethyl)pyrimidin-4-yl)amino)-3,4-dihydroquinolin-2(1H)-one]	> 2000
O=C1CCc2cc(Nc3ncc(C(F)(F)F)c(NC4CC4)n3)ccc2N1 [131a, 6-((4-(cyclopropylamino)-5-(trifluoromethyl)pyrimidin-2-yl)amino)-3,4-dihydroquinolin-2(1H)-one]	< 200
FC(F)(F)c1cnc(Nc2cnc3[nH]ccc3c2)nc1Nc1ccccc1 [181a, N4-phenyl-N2-(1H-pyrrolo[2,3-b]pyridin-5-yl)-5-(trifluoromethyl)pyrimidine-2,4-diamine]	< 200
COc1ccc(Nc2nc(Nc3ccc(N4CCOCC4)cc3OC)ncc2Cl)cn1 [compound 27, 5-Chloro-N^2-(2-methoxy-4-morpholinophenyl)-N^4-(6-methoxypyridin-3-yl)pyrimidine-2,4-diamine]	> 2000
CCCCOc1nc(Nc2cc(OC)c(OC)c(OC)c2)ncc1Br [compound 173, 5-bromo-4-butoxy-N-(3,4,5-trimethoxyphenyl)pyrimidin-2-amine]	< 200
CNC(=O)c1ccccc1Oc1nc(Nc2ccc(C)cc2Cl)ncc1C(F)(F)F [compound 107, 2-((2-((2-chloro-4-methylphenyl)amino)-5-(trifluoromethyl)pyrimidin-4-yl)oxy)-N-methylbenzamide]	> 2000
COc1cccc(Nc2nc(Nc3ccc4c(c3)CCC(=O)N4)ncc2Br)c1 [compound 142, 6-((5-bromo-4-((3-methoxyphenyl)amino)pyrimidin-2-yl)amino)-3,4-dihydroquinolin-2(1H)-one]	< 200
CNC(=O)c1ccccc1Oc1nc(Nc2cccc(OC)c2OC)ncc1C(F)(F)F [115a, 2-((2-((2,3-dimethoxyphenyl)amino)-5-(trifluoromethyl)pyrimidin-4-yl)oxy)-N-methylbenzamide]	> 2000
CNC(=O)c1ccccc1Nc1nc(Nc2ccc3c(c2)OCO3)ncc1Cl [compound 49, 2-(2-(Benzo[d][1,3]dioxol-5-ylamino)-5-chloropyrimidin-4-ylamino)-N-methylbenzamide]	< 200
O=C1CCc2cc(Nc3nc(Nc4ccc5c(c4)OC(F)(F)O5)ncc3C(F)(F)F)ccc2N1 [178b, 6-((2-((2,2-difluorobenzo[d][1,3]dioxol-5-yl)amino)-5-(trifluoromethyl)pyrimidin-4-yl)amino)-3,4-dihydroquinolin-2(1H)-one]	< 200
Oc1nc(Nc2ccc(Cl)c(Cl)c2)ncc1C(F)(F)F [108b, 2-((3,4-dichlorophenyl)amino)-5-(trifluoromethyl)pyrimidin-4-ol]	> 2000
COc1ccc(Nc2nc(Nc3ccc4[nH]ccc4c3)ncc2Br)cn1 [compound 30, 5-Bromo-N^2-(1H-indol-5-yl)-N^4-(6-methoxypyridin-3-yl) pyrimidine-2,4-diamine]	< 200
COc1ccc(C)c(Nc2ncc(Cl)c(Nc3cccc(CC#N)c3)n2)c1 [compound 54, 2-(3-(5-Chloro-2-(5-methoxy-2-methylphenylamino)pyrimidin-4-ylamino)phenyl)acetonitrile]	> 2000
Nc1ncc(C(F)(F)F)c(Nc2cnc3[nH]ccc3c2)n1 [181b, N4-(1H-pyrrolo[2,3-b]pyridin-5-yl)-5-(trifluoromethyl)pyrimidine-2,4-diamine]	200 to 2000
FC(F)(F)c1cnc(NC2CCC2)nc1Nc1ccc2c(c1)OCO2 [168a, N^4-(benzo[d][1,3]dioxol-5-yl)-N^2-cyclobutyl-5-(trifluoromethyl)pyrimidine-2,4-diamine]	< 200
O=C1CCc2cc(Nc3ncc(C(F)(F)F)c(Nc4ccccc4)n3)ccc2N1 [compound 48, 6-(4-(Phenylamino)-5-(trifluoromethyl)pyrimidin-2-ylamino)-3,4-dihydroquinolin-2(1H)-one]	< 200
